# Test results reported in US8455688B2, “HDAC inhibitors” (Lixte Biotechnology, Inc., priority 2007, dated 2013).
# Read-outs that look alike come from different tables or passages of the source.
# Columns and labels:
# [1] = tested on: CP Control; assay: Broth dilution antifungal susceptibility testing, CP Control; type: cell-based; details: read-out: minimum inhibitory concentration (MIC)
# Experimental: (§1) A total of 23 isolates were tested to include 3 Candida albicans, 3 Candida glabrata, 3 Cryptococcus neoformans, 3 Aspergillus fumigatus, 3 Rhizopus oryzae, 3, Fusarium solani, 3 Pseudallescheria boydii, and 2 […]. All isolates were clinical isolates submitted to the Fungus Testing Laboratory for evaluation. Antifungal susceptibility testing was accomplished according to the methods outlined in the National Committee for Clinical Laboratory Standards, M-27A2, Reference Method for Broth Dilution Antifungal Susceptibility Testing of Yeasts; Approved Standard, and M38-A “Reference Method for Broth Dilution Antifungal Susceptibility Testing of Conidium-Forming Filamentous Fungi; Approved Standard”. This includes testing in RPMI-1640 with glutamine and without bicarbonate, an inoculum size of 0.5-2.5×10^3 for yeasts or […] for moulds, and incubation at 35° C. for 24 and 48 hours. […] Drug concentrations were 0.125-64 μg/ml. A 10 mg portion of each powder was weighed out and added to 1 ml of 100% DMSO for compound 205. The resulting concentration of […] was diluted to a working concentration of 6400 μg/ml for compound 205 in 100% DMSO. All subsequent dilutions were also made using the respective diluents. Final testing concentrations ranged from 0.125-64 μg/ml. The NCCLS recommended medium RPMI-1640 (Hardy Diagnostics, Santa Monica, Calif.) was utilized as the test medium. All isolates in this study were clinical isolates received in the Fungus Testing Laboratory for standard antifungal susceptibility testing and/or identification. Isolates, which were not sent for identification, were confirmed to assure testing integrity. A total of 23 were tested to include 3 Candida albicans, 3 Candida glabrata, 3 Cryptococcus neoformans, 3 Aspergillus fumigatus, 3 Rhizopus oryzae, 3, Fusarium solani, 3 Pseudallescheria boydii, and 2 […]. Minimum inhibitory concentrations (MIC) were determined at the first 24-hour interval where growth could be determined in the drug-free control tube.
# [2] = tested on: C. albicans; assay: Broth dilution antifungal susceptibility testing, C. albicans; type: cell-based, Candida albicans; details: 50% reduction in turbidity; for MIC: Candida albicans, read-out: minimum inhibitory concentration (MIC)
# Experimental: as §1
# [3] = tested on: C. glabrata; assay: Broth dilution antifungal susceptibility testing, C. glabrata; type: cell-based, Candida glabrata; details: 50% reduction in turbidity; for MIC: Nakaseomyces glabratus, read-out: minimum inhibitory concentration (MIC)
# Experimental: as §1
# [4] = tested on: C. neoformans; assay: Broth dilution antifungal susceptibility testing, C. neoformans; type: cell-based; details: Cryptococcus neoformans, 50% reduction in turbidity, read-out: minimum inhibitory concentration (MIC)
# Experimental: as §1
# [5] = tested on: R. arrhizus; assay: Broth dilution antifungal susceptibility testing, R. arrhizus; type: cell-based, Rhizopus oryzae; details: 80% inhibition; for MIC: Rhizopus arrhizus, read-out: minimum inhibitory concentration (MIC)
# Experimental: as §1
# [6] = tested on: F. solani; assay: Broth dilution antifungal susceptibility testing, F. solani; type: cell-based; details: Fusarium solani, 48 h, 48 hours, 80% inhibition, read-out: minimum inhibitory concentration (MIC)
# Experimental: as §1
# [7] = tested on: S. apiospermum; assay: Broth dilution antifungal susceptibility testing, S. apiospermum; type: cell-based, Pseudallescheria boydii; details: 80% inhibition; for MIC: Scedosporium apiospermum, read-out: minimum inhibitory concentration (MIC)
# Experimental: as §1
# [8] = tested on: A. fumigatus; assay: Broth dilution antifungal susceptibility testing, A. fumigatus; type: cell-based, Aspergillus fumigatus; details: 80% inhibition; for MIC: Aspergillus fumigatus, read-out: minimum inhibitory concentration (MIC)
# Experimental: as §1
# [9] = tested on: T. rubrum; assay: Broth dilution antifungal susceptibility testing, T. rubrum; type: cell-based, Trichophyton rubrum; details: 80% inhibition; for MIC: Trichophyton rubrum, read-out: minimum inhibitory concentration (MIC)
# Experimental: as §1
# [10] = tested on: cell line U-87; assay: Activity against the cell line U-87; type: cell-based, human; details: potency on an equimolar basis
structure (smiles),measurement,setting,value
"O=C(CCCCCNC(=O)c1ccccc1S)Nc1ccccc1 [Compound 201, 2-mercapto-N-[5-(phenylcarbamoyl)pentyl]benzamide]",MIC,[1]; 24 hours,8 µg/mL
same,MIC,[1]; 48 hours,> 64 µg/mL
same,MIC,"[2]; 24 h, isolate 07-3006, 24 hours",8 µg/mL
same,MIC,"[2]; 24 h, isolate 07-3011, 24 hours",4 µg/mL
same,MIC,"[2]; 24 h, isolate 07-3012, 24 hours",4 µg/mL
same,MIC,"[2]; 48 h, isolate 07-3006, 48 hours",> 64 µg/mL
same,MIC,"[2]; 48 h, isolate 07-3011, 48 hours",> 64 µg/mL
same,MIC,"[2]; 48 h, isolate 07-3012, 48 hours",> 64 µg/mL
same,minimum inhibitory concentration (MIC),"[2]; isolate 07-3006, 24 hours",4 µg/mL
same,minimum inhibitory concentration (MIC),"[2]; isolate 07-3011, 24 hours",8 µg/mL
same,minimum inhibitory concentration (MIC),"[2]; isolate 07-3012, 24 hours",8 µg/mL
same,MIC,"[3]; 24 h, isolate 07-2964, 24 hours",2 µg/mL
same,MIC,"[3]; 24 h, isolate 07-2965, 24 hours",1 µg/mL
same,MIC,"[3]; 24 h, isolate 07-3013, 24 hours",2 µg/mL
same,MIC,"[3]; 48 h, isolate 07-2964, 48 hours",> 64 µg/mL
same,MIC,"[3]; 48 h, isolate 07-2965, 48 hours",> 64 µg/mL
same,MIC,"[3]; 48 h, isolate 07-3013, 48 hours",> 64 µg/mL
same,minimum inhibitory concentration (MIC),"[3]; isolate 07-2964, 24 hours",4 µg/mL
same,minimum inhibitory concentration (MIC),"[3]; isolate 07-2965, 24 hours",2 µg/mL
same,MIC,"[4]; 24 h, isolate 07-2665, 24 hours",2 µg/mL
same,MIC,"[4]; 24 h, isolate 07-2737, 24 hours",2 µg/mL
same,MIC,"[4]; 24 h, isolate 07-2829, 24 hours",2 µg/mL
same,MIC,"[4]; 48 h, isolate 07-2737, 48 hours",4 µg/mL
same,MIC,"[4]; 48 h, isolate 07-2829, 48 hours",2 µg/mL
same,MIC,"[5]; 24 h, isolate 07-2044, 24 hours",8 µg/mL
same,MIC,"[5]; 24 h, isolate 07-2078, 24 hours",> 64 µg/mL
same,MIC,"[5]; 48 h, isolate 07-2044, 48 hours",> 64 µg/mL
same,MIC,"[5]; 48 h, isolate 07-2078, 48 hours",> 64 µg/mL
same,minimum inhibitory concentration (MIC),"[5]; isolate 07-2044, 24 hours",4 µg/mL
same,MIC,[6]; isolate 07-1755,> 64 µg/mL
same,MIC,[6]; isolate 07-1867,> 64 µg/mL
same,MIC,"[7]; 24 h, isolate 07-1333, 24 hours",1 µg/mL
same,MIC,"[7]; 24 h, isolate 07-1502, 24 hours",2 µg/mL
same,MIC,"[7]; 48 h, isolate 07-1333, 48 hours",1 µg/mL
same,MIC,"[7]; 48 h, isolate 07-1502, 48 hours",4 µg/mL
same,minimum inhibitory concentration (MIC),"[7]; isolate 07-1333, 24 hours",2 µg/mL
same,minimum inhibitory concentration (MIC),"[7]; isolate 07-1333, 48 hours",2 µg/mL
same,minimum inhibitory concentration (MIC),"[7]; isolate 07-1502, 48 hours",2 µg/mL
same,MIC,"[8]; 24 h, isolate 05-388, 24 hours",1 µg/mL
same,MIC,"[8]; 24 h, isolate 06-4126, 24 hours",0.5 µg/mL
same,MIC,"[8]; 24 h, isolate 07-2039, 24 hours",1 µg/mL
same,MIC,"[8]; 48 h, isolate 05-388, 48 hours",> 64 µg/mL
same,MIC,"[8]; 48 h, isolate 07-2039, 48 hours",> 64 µg/mL
same,minimum inhibitory concentration (MIC),"[8]; isolate 06-4126, 24 hours",1 µg/mL
same,MIC,"[9]; 24 h, isolate 07-1743, 24 hours",2 µg/mL
same,MIC,"[9]; 24 h, isolate 07-2055, 24 hours",2 µg/mL
same,MIC,"[9]; 48 h, isolate 07-1743, 48 hours",2 µg/mL
same,MIC,"[9]; 48 h, isolate 07-2055, 48 hours",2 µg/mL
same,minimum inhibitory concentration (MIC),"[9]; isolate 07-1743, 24 hours",1 µg/mL
same,minimum inhibitory concentration (MIC),"[9]; isolate 07-1743, 48 hours",1 µg/mL
same,minimum inhibitory concentration (MIC),"[9]; isolate 07-2055, 24 hours",1 µg/mL
same,minimum inhibitory concentration (MIC),"[9]; isolate 07-2055, 48 hours",1 µg/mL
same,activity against the cell line U-87,[10],most potent on an equimolar basis
